Tests used:
Format in all cases: cell-based
[1] = tested on: Bacteria mixture 1 (Pseudomonas genus); experiment: Repetitive stress test of paints with bacteria mixture 1, semiquantitative evaluation (examples 2 and 3); settings: table 3
From the text: (§1) Paints 1 to 3 were mixed and homogenized with various concentrations of the guanidinium salts to be tested.
(§2) The batches obtained of the paint thus prepared were inoculated repeatedly with a mixture of different wild-type bacterial strains that are of practical relevance with regard to contamination. These bacteria had previously been isolated from commercial emulsion paints containing conventional preservatives (bacteria mixture 1, Pseudomonas genus), which are microbially contaminated in practice, and commercial so-called preservative-free alkaline emulsion paints (bacteria mixture 2, alkaliphilic bacteria of the Nesterenkonia & Alkalibacterium genus), which are microbially contaminated in practice.
(§3) • Pseudomonas spp. (Pseudomonas oleovorans group) DSM 33933 • Pseudomonas aeruginosa DSM 33935 • Pseudomonas oleovorans DSM 33936 • Pseudomonas putida DSM 33937 • Pseudomonas aeruginosa DSM 33938
(§4) The inoculum was added to the respective sample in each inoculation at 2% (v/w) as a fresh cell suspension in a physiological saline solution (0.9% NaCl). The cell count of the added inoculum in example 1 was 10^5/ml, in examples 2 to 5 10^9/ml, and in example 6 10^6/ml, each in equal portions consisting of the individual bacterial strains. The cell suspension was produced by growing the individual bacteria at 30° C. for 24 h in liquid culture on a shaker. The medium used to grow the bacteria from bacteria mixture 1 was Müller-Hinton liquid medium. Bacteria from bacteria mixture 2 were grown in Müller-Hinton liquid medium that had been adjusted to pH 9.5-9.7 with an alkaline buffer solution beforehand. After growing, the individual liquid cultures were centrifuged, and the cells were resuspended in physiological saline solution. In order to adjust the mixture to the desired cell count, the individual bacteria suspensions, if necessary, were diluted accordingly before being combined with saline solution. The cell count of the inoculum was determined in each case by chamber counting.
In examples 2 to 6, what is called a repetitive stress test with bacteria was conducted by inoculating the samples at particular time intervals repeatedly with a bacteria suspension having a cell count of 10^9/ml (2% v/w) and monitoring the evolution of the bacteria by a semiquantitative evaluation method. After each inoculation, the samples were incubated at 30° C. for 6 days (bacteria mixture 1 and 3) or 7 and 14 days (bacteria mixture 2), and after these periods bacterial infestation was evaluated semiquantitatively in each case. For this purpose, an aliquot was taken from each sample after homogenization using a sterile plastic inoculation loop (10 μl) and streaked evenly on agar plates (bacteria mixture 1 and 3 on tryptic soy agar, bacteria mixture 2 on DSMZ 31 alkaline nutrient agar). The streaked agar plates were then incubated at 30° C. for 48 h (bacteria mixture 1 and 3) or 5 to 7 days (bacteria mixture 2). After incubation, the bacterial colonies grown on the agar plates were visually evaluated and quantified according to the following scheme:
A total of 3 inoculation cycles was performed in each repetitive stress test.
Inoculation 2% (w/v) with Bacteria Mixture 1, 10^9 CFU/ml
2% (w/v) Inoculation with Bacteria Mixture 1, […]

[2] = tested on: Bacteria mixture 1 (Pseudomonas genus); experiment: Single inoculation of paint with bacteria mixture 1, live bacteria count (CFU/g) over 28 days (example 1); settings: for Colony forming units (CFU)/g of paint after days [d]: Table 1, Paint 1
From the text: as §1, §2, §3, §4
In example 1, the samples were inoculated once with a bacteria suspension (bacteria mixture 1) with a cell count of 10^5/ml (2% v/w) and the growth thereof was monitored by determining the live bacteria count per g of paint (colony-forming units, CFU/g) in the samples over 28 days. The CFU/g was determined each time by taking an aliquot (1 g) from the previously homogenized sample and running a serial decadic dilution series in physiological saline solution (0.9% NaCl) by streaking on tryptic soy agar, followed by incubation of the agar plates at 30° C. for 48 h.
Inoculation 2% (w/v) with Bacteria Mixture 1, 10^5 CFU/ml

Bacteria mixture 3 = experiment: Repetitive stress test of calcium carbonate slurry with bacteria mixture 3, semiquantitative evaluation (example 6); settings: table 6; slurry having a pH of pH 9.4, addition of 0.075% by weight
Procedure: The calcium carbonate slurry was stored at 60° C. for 3 days prior to addition of the guanidinium salts for heat sterilization. The slurry thus treated was then admixed and homogenized with different concentrations of guanidine salts. The slurry prepared in this way was inoculated repeatedly with bacteria strains of practical relevance (bacteria mixture 3).
• Alcaligenes faecalis NCIMB 13145 • Aeromonas hydrophila DSM 6173 • Escherichia coli DSM 13631 • Burkholderia cepacia DSM 9241 • Staphylococcus aureus DSM 799 • Pseudomonas aeruginosa DSM 50071 • Pseudomonas putida DSM 13624
The inoculum was added to the respective sample in each inoculation at 2% (v/w) as a fresh cell suspension in a physiological saline solution (0.9% NaCl). […] The cell count of the inoculum was determined in each case by chamber counting.
In examples 2 to 6, what is called a repetitive stress test with bacteria was conducted by inoculating the samples at particular time intervals repeatedly with a bacteria suspension having a cell count of 10^9/ml (2% v/w) and monitoring the evolution of the bacteria by a semiquantitative evaluation method. After each inoculation, the samples were incubated at 30° C. for 6 days (bacteria mixture 1 and 3) or 7 and 14 days (bacteria mixture 2), and after these periods bacterial infestation was evaluated semiquantitatively in each case. […]

SMILES: N=C(N)N.N=C(N)N.O=C(O)O [guanidine carbonate]
- Stabilization of the paint against microbial infestation ([1]; paint 1, pH of pH 9.4, addition of 0.15% by weight): distinct stabilization
- Stabilization of the paint against microbial infestation ([1]; paint 2, pH of pH 9.1, addition of 0.175% by weight): distinct stabilization
- Colony forming units (CFU)/g of paint after days [d] ([2]; +0.01% guanidine carbonate (67 ppm guanidine), pH 8.1, 0 d): 1.2 × 10^3 CFU/g
- Colony forming units (CFU)/g of paint after days [d] ([2]; +0.01% guanidine carbonate (67 ppm guanidine), pH 8.1, 2 d): 3.2 × 10^3 CFU/g
- Colony forming units (CFU)/g of paint after days [d] ([2]; +0.01% guanidine carbonate (67 ppm guanidine), pH 8.1, 5 d): 3.0 × 10^5 CFU/g
- Colony forming units (CFU)/g of paint after days [d] ([2]; +0.01% guanidine carbonate (67 ppm guanidine), pH 8.1, 28 d): 2.8 × 10^6 CFU/g
- Colony forming units (CFU)/g of paint after days [d] ([2]; +0.025% guanidine carbonate (164 ppm guanidine), pH 8.3, 0 d): 1.2 × 10^3 CFU/g
- Colony forming units (CFU)/g of paint after days [d] ([2]; +0.025% guanidine carbonate (164 ppm guanidine), pH 8.3, 2 d): 1.1 × 10^3 CFU/g
- Colony forming units (CFU)/g of paint after days [d] ([2]; +0.025% guanidine carbonate (164 ppm guanidine), pH 8.3, 5 d): 1.0 × 10^5 CFU/g
- Colony forming units (CFU)/g of paint after days [d] ([2]; +0.025% guanidine carbonate (164 ppm guanidine), pH 8.3, 28 d): 2.3 × 10^6 CFU/g
- Colony forming units (CFU)/g of paint after days [d] ([2]; +0.05% guanidine carbonate (328 ppm guanidine), pH 8.5, 0 d): 9.0 × 10^2 CFU/g
- Colony forming units (CFU)/g of paint after days [d] ([2]; +0.05% guanidine carbonate (328 ppm guanidine), pH 8.5, 2 d): <5 CFU/g
- Colony forming units (CFU)/g of paint after days [d] ([2]; +0.05% guanidine carbonate (328 ppm guanidine), pH 8.5, 5 d): <5 CFU/g
- Colony forming units (CFU)/g of paint after days [d] ([2]; +0.05% guanidine carbonate (328 ppm guanidine), pH 8.5, 28 d): <5 CFU/g
- Colony forming units (CFU)/g of paint after days [d] ([2]; +0.075% guanidine carbonate (492 ppm guanidine), pH 8.7, 0 d): 1.1 × 10^3 CFU/g
- Colony forming units (CFU)/g of paint after days [d] ([2]; +0.075% guanidine carbonate (492 ppm guanidine), pH 8.7, 2 d): <5 CFU/g
- Colony forming units (CFU)/g of paint after days [d] ([2]; +0.075% guanidine carbonate (492 ppm guanidine), pH 8.7, 5 d): <5 CFU/g
- Colony forming units (CFU)/g of paint after days [d] ([2]; +0.075% guanidine carbonate (492 ppm guanidine), pH 8.7, 28 d): <5 CFU/g
- Colony forming units (CFU)/g of paint after days [d] ([2]; +0.1% guanidine carbonate (656 ppm guanidine), pH 9.0, 0 d): 1.2 × 10^3 CFU/g
- Colony forming units (CFU)/g of paint after days [d] ([2]; +0.1% guanidine carbonate (656 ppm guanidine), pH 9.0, 2 d): <5 CFU/g
- Colony forming units (CFU)/g of paint after days [d] ([2]; +0.1% guanidine carbonate (656 ppm guanidine), pH 9.0, 5 d): <5 CFU/g
- Colony forming units (CFU)/g of paint after days [d] ([2]; +0.1% guanidine carbonate (656 ppm guanidine), pH 9.0, 28 d): <5 CFU/g
- Stabilization of the paint against microbial infestation ([2]; table 1, addition of 0.05% by weight to a paint having a pH of greater than or equal to pH 8.5): distinct stabilization
- Stabilization of the slurry against microbial infestation (Bacteria mixture 3): distinct stabilization
